According to ChEMBL document CHEMBL5506017, “Brain-Permeable Immunoproteasome-Targeting Macrocyclic Peptide Epoxyketones for Alzheimer's Disease” (J Med Chem, 2024):

Assays:
[1] = biological target: T1, Proteasome subunit beta type-9 (Homo sapiens, UniProt P28065); assay: Inhibition of human LMP2 using Ac-PAL-AMC as substrate incubated for 1 hr by fluorescence based SpectraMax M5e plate reader
T1 sequence (P28065 whole entry): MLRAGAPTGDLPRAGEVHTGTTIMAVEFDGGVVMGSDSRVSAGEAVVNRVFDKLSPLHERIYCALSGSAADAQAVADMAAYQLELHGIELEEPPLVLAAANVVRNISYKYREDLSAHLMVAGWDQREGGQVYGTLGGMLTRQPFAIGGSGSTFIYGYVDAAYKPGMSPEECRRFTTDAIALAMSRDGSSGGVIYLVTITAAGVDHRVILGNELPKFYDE

[2] = Metabolic stability in human liver microsomes assessed as half life at 2 uM measured upto 60 mins by LC-MS/MS analysis; assay type: ADME, Microsome; details: 1 h
[3] = Metabolic stability in human liver microsomes assessed as parent compound remaining at 2 uM measured at 60 mins by LC-MS/MS analysis; assay type: ADME, Microsome; details: 1 h
[4] = Apparent permeability of the compound across basal to apical side in human Caco-2 cells expressing Pgp/BCRP at 10 uM incubated for 120 mins by LC-MS/MS analysis; assay type: ADME, cell-based; details: caco-2, 2 h
[5] = Apparent permeability of the compound across apical to basolateral side in human Caco-2 cells expressing Pgp/BCRP at 10 uM incubated for 120 mins by LC-MS/MS analysis; assay type: ADME, cell-based; details: caco-2, 2 h
[6] = Efflux ratio of apparent permeability across basolateral to apical side over apical to basolateral side in human Caco-2 cells expressing Pgp/BCRP at 10 uM incubated for 120 mins by LC-MS/MS analysis; assay type: ADME, cell-based; details: caco-2, 2 h
[7] = Cytotoxicity against human ARPE-19 cells assessed as reduction in cell viability incubated for 96 hrs by CellTiter 96 Aqueous One Solution Cell Proliferation Assay; assay type: toxicity, cell-based
HMC3 = assay: Cytotoxicity against human HMC3 cells assessed as reduction in cell viability at 30 to 100 uM incubated for 96 hrs by CellTiter 96 Aqueous One Solution Cell Proliferation Assay; assay type: toxicity, cell-based; details: hmc3, 96 h, dose 30-100 µM
ARPE-19 = assay: Cytotoxicity against human ARPE-19 cells assessed as reduction in cell viability at 30 to 100 uM incubated for 96 hrs by CellTiter 96 Aqueous One Solution Cell Proliferation Assay; assay type: toxicity, cell-based; details: arpe-19, 96 h, dose 30-100 µM
[8] = Mutagenicity in Salmonella typhimurium TA98 at 0.01 to 100 uM incubated for 90 mins in absence of liver S9 fraction by AMES test; assay type: toxicity; details: salmonella enterica subsp. enterica serovar typhimurium, s9, 1.5 h, dose 0.01-100 µM
[9] = Mutagenicity in Salmonella typhimurium TA100 at 0.01 to 100 uM incubated for 90 mins in absence of liver S9 fraction by AMES test; assay type: toxicity; details: salmonella enterica subsp. enterica serovar typhimurium, s9, 1.5 h, dose 0.01-100 µM
[10] = Mutagenicity in Salmonella typhimurium TA100 at 0.01 to 100 uM incubated for 90 mins in presence of liver S9 fraction by AMES test; assay type: toxicity, subcellular; details: salmonella enterica subsp. enterica serovar typhimurium, s9, 1.5 h, dose 0.01-100 µM
[11] = AUC (0 to last) in BALB/c mouse at 40 mg/kg, iv measured upto 1440 mins by LC-MS/MS analysis; assay type: ADME, organism-based; details: in vivo, 24 h
[12] = AUC infinity in BALB/c mouse at 40 mg/kg, iv measured upto 1440 mins by LC-MS/MS analysis; assay type: ADME, organism-based; details: in vivo, 24 h
[13] = C0 in BALB/c mouse at 40 mg/kg, iv measured upto 1440 mins by LC-MS/MS analysis; assay type: ADME, organism-based; details: in vivo, 24 h
[14] = Cmax in BALB/c mouse at 40 mg/kg, iv measured upto 1440 mins by LC-MS/MS analysis; assay type: ADME, organism-based; details: in vivo, 24 h
[15] = Tmax in BALB/c mouse at 40 mg/kg, iv measured upto 1440 mins by LC-MS/MS analysis; assay type: ADME, organism-based; details: in vivo, 24 h
[16] = Clearance in BALB/c mouse at 40 mg/kg, iv measured upto 1440 mins by LC-MS/MS analysis; assay type: ADME, organism-based; details: in vivo, 24 h
[17] = Volume of distribution at steady state in BALB/c mouse at 40 mg/kg, iv measured upto 1440 mins by LC-MS/MS analysis; assay type: ADME, organism-based; details: in vivo, 24 h
[18] = AUC infinity in BALB/c mouse at 150 mg/kg, po measured after 15 to 360 mins by LC-MS/MS analysis; assay type: ADME, organism-based; details: in vivo, time 15-360 min
[19] = Cmax in BALB/c mouse at 150 mg/kg, po measured after 15 to 360 mins by LC-MS/MS analysis; assay type: ADME, organism-based; details: in vivo, time 15-360 min
[20] = Oral bioavailability in BALB/c mouse at 150 mg/kg measured after 15 to 360 mins by LC-MS/MS analysis; assay type: ADME, organism-based; details: in vivo, time 15-360 min
[21] = Protein binding in human plasma assessed as unbound fraction; assay type: ADME, cell-free
[22] = Stability in human plasma; assay type: ADME, cell-free
[23] = Drug recovery in human plasma; assay type: ADME, cell-free
[24] = Tmax in BALB/c mouse plasma at 40 mg/kg, iv measured upto 1440 mins by LC-MS/MS analysis; assay type: ADME, organism-based
[25] = Toxicity in BALB/c mouse assessed as effect on weight loss at 40 mg/kg, iv; assay type: organism-based; details: in vivo
[26] = Toxicity in BALB/c mouse assessed as effect on hair loss at 40 mg/kg, iv; assay type: organism-based; details: in vivo
[27] = Toxicity in BALB/c mouse assessed as diarrhea at 40 mg/kg, iv; assay type: organism-based; details: in vivo
[28] = Toxicity in BALB/c mouse assessed as paralysis at 40 mg/kg, iv; assay type: organism-based; details: in vivo
[29] = Toxicity in BALB/c mouse assessed as tremor at 40 mg/kg, iv; assay type: organism-based; details: in vivo
[30] = Toxicity in BALB/c mouse assessed as effect on weight loss at 100 mg/kg, po; assay type: organism-based; details: in vivo
[31] = Toxicity in BALB/c mouse assessed as effect on hair loss at 100 mg/kg, po; assay type: organism-based; details: in vivo
[32] = Toxicity in BALB/c mouse assessed as diarrhea at 100 mg/kg, po; assay type: organism-based; details: in vivo
[33] = Toxicity in BALB/c mouse at 100 mg/kg, iv measured for 72 hrs; assay type: organism-based; details: in vivo
[34] = Drug uptake in BALB/c mouse brain at 40 mg/kg, iv measured after 2 hrs; assay type: ADME, organism-based; details: in vivo
[35] = Drug uptake in BALB/c mouse liver at 40 mg/kg, iv measured after 2 hrs; assay type: ADME, organism-based; details: in vivo
[36] = Drug uptake in BALB/c mouse kidney at 40 mg/kg, iv measured after 2 hrs; assay type: ADME, organism-based; details: in vivo
[37] = Drug uptake in BALB/c mouse spleen at 40 mg/kg, iv measured after 2 hrs; assay type: ADME, organism-based; details: in vivo
[38] = Drug uptake in BALB/c mouse lung at 40 mg/kg, iv measured after 2 hrs; assay type: ADME, organism-based; details: in vivo
[39] = In vivo inhibition of LMP2 activity in BALB/c mouse brain at 100 mg/kg, iv measured after 24 hrs relative to control; assay type: functional
[40] = In vivo inhibition of LMP2 activity in BALB/c mouse brain at 150 mg/kg, po measured after 6 hrs post dose relative to control; assay type: functional
[41] = In vivo inhibition of LMP2 activity in BALB/c mouse blood at 150 mg/kg, po measured after 6 hrs post dose relative to control; assay type: functional

## CC(C)C[C@H](NC(=O)[C@@H]1COCCCCCC(=O)N2C[C@H](F)C[C@H]2C(=O)N1)C(=O)[C@@]1(C)CO1
[1]
  IC50: 87 nM
[2]
  t1/2: 38.4 min
[3]
  Stability: 33%
[4]
  Papp: 17.3 10^-6 cm/s
[5]
  Papp: 6.62 10^-6 cm/s
[6]
  Ratio: 2.62
[7]
  IC50 at 96 h: > 100000 nM
HMC3
  Activity: Non-Toxic
ARPE-19
  Activity: Non-Toxic
[8]
  Activity: Non-Toxic
[9]
  Activity: Non-Toxic
[10]
  Activity: Non-Toxic
[11]
  AUClast: 9689 ng·h/mL
[12]
  AUC: 9689 ng·h/mL
[13]
  C0: 31987 ng/mL
[14]
  Cmax: 25900 ng/mL
[15]
  Tmax: 4.98 min
[16]
  CL: 70.88 mL/min/kg
[17]
  Vdss: 2.572 L/kg
[18]
  AUC: 3571 ng·h/mL
[19]
  Cmax: 3630 ng/mL
[20]
  F: 9.8%
[21]
  Fu: 0.45%
[22]
  Stability: 78%
[23]
  Drug recovery: 74%
[24]
  Tmax: 15 min
[25]
  Activity: Non-Toxic
[26]
  Activity: Non-Toxic
[27]
  Activity: Non-Toxic
[28]
  Activity: Non-Toxic
[29]
  Activity: Non-Toxic
[30]
  Activity: Non-Toxic
[31]
  Activity: Non-Toxic
[32]
  Activity: Non-Toxic
[33]
  Activity: Non-Toxic
[34]
  Drug uptake: Active
[35]
  Drug uptake: Active
[36]
  Drug uptake: Active
[37]
  Drug uptake: Active
[38]
  Drug uptake: Not Active
[39]
  inhibition in vivo at 100 mg/kg: 65%
[40]
  inhibition in vivo at 150 mg/kg: 21%
[41]
  inhibition in vivo at 150 mg/kg: 90%
